Measured values published in ChEMBL document CHEMBL4411296, “Design and development of Isatin-triazole hydrazones as potential inhibitors of microtubule affinity-regulating kinase 4 for the therapeutic management of cell proliferation and metastasis” (Eur J Med Chem, 2019).
Active and inactive are the calls of the source. No cut-off for these calls is given here.

What was measured:
[1] = biological target: Calcium/calmodulin-dependent protein kinase type II subunit alpha (Homo sapiens) (UniProt Q9UQM7); assay: Inhibition of CAMK2 alpha (unknown origin) at 10 uM after 60 mins by ADP-Glo luminescence assay
[2] = biological target: Calcium/calmodulin-dependent protein kinase type II subunit beta (Homo sapiens) (UniProt Q13554); assay: Inhibition of CAMKII (unknown origin) at 10 uM after 60 mins by ADP-Glo luminescence assay
Chain of Calcium/calmodulin-dependent protein kinase type II subunit beta (Homo sapiens) (Q13554 whole entry): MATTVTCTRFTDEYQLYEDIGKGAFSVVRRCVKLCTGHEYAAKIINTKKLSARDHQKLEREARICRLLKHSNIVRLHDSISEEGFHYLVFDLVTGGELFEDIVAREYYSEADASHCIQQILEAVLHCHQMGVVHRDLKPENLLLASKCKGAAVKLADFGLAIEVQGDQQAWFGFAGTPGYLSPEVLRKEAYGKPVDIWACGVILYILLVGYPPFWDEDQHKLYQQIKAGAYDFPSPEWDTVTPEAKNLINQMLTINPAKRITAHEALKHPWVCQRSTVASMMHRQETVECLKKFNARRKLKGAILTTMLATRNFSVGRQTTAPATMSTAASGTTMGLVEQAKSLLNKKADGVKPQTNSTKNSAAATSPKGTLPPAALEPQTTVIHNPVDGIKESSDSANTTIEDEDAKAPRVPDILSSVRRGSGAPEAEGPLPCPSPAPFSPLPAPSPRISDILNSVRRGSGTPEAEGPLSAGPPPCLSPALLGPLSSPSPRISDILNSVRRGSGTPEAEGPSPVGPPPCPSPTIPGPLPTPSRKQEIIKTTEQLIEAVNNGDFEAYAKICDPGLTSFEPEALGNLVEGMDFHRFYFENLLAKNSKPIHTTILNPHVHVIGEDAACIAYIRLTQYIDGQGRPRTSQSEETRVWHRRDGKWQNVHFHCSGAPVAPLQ

[3] = biological target: Calcium/calmodulin-dependent protein kinase type 1 (Homo sapiens) (UniProt Q14012); assay: Inhibition of CAMKI (unknown origin) at 10 uM after 60 mins by ADP-Glo luminescence assay
Chain of Calcium/calmodulin-dependent protein kinase type 1 (Homo sapiens) (Q14012 whole entry, looked up): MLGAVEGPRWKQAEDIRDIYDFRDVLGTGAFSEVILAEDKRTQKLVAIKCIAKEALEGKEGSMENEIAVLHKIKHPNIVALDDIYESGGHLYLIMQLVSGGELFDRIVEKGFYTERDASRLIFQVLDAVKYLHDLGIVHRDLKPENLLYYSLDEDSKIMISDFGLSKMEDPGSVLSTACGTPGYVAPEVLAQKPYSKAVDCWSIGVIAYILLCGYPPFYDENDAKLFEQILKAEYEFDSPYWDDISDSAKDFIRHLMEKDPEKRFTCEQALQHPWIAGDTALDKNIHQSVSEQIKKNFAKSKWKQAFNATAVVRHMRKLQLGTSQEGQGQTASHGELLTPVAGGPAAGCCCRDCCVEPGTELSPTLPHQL

MCF7 [4] = assay: Induction of ROS generation in human MCF7 cells at IC50 after 5 to 6 hrs by DCFDA staining-based spectroflourimetric analysis; assay type: functional, cell-based
Albumin = Albumin (Homo sapiens, UniProt P02768); assay: Binding affinity to HSA by ITC; assay type: ADME; conditions: isolated protein
Chain of Albumin (P02768 whole entry): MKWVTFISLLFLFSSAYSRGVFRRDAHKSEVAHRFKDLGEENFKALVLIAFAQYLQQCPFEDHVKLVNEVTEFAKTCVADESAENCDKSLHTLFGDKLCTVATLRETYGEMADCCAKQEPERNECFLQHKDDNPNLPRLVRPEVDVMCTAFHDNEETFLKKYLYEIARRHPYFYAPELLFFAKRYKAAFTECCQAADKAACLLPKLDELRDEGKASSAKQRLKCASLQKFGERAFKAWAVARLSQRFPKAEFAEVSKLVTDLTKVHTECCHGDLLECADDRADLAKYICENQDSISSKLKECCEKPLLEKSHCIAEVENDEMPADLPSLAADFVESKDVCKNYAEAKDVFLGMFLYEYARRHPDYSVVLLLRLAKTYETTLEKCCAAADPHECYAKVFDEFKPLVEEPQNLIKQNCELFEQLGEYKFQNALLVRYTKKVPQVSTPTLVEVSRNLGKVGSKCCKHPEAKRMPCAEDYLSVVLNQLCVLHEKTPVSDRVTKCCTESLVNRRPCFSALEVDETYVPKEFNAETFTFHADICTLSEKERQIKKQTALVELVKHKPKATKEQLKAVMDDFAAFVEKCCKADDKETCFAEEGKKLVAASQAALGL

MCF7 [5] = assay: Antiproliferative activity against human MCF7 cells assessed as cell viability after 48 hrs by MTT assay; conditions: MCF7, 48 h
HepG2 [6] = assay: Induction of apoptosis in human HepG2 cells assessed as late apoptotic cells at IC50 after 24 hrs by Annexin V-FITC/propidium iodide staining-based flow cytometric analysis (reference value: 0.039%); assay type: functional
[7] = biological target: Calcium/calmodulin-dependent protein kinase type IV (Homo sapiens) (UniProt Q16566); assay: Inhibition of CAMK4 (unknown origin) at 10 uM after 60 mins by ADP-Glo luminescence assay
Chain of Calcium/calmodulin-dependent protein kinase type IV (Homo sapiens) (Q16566 whole entry): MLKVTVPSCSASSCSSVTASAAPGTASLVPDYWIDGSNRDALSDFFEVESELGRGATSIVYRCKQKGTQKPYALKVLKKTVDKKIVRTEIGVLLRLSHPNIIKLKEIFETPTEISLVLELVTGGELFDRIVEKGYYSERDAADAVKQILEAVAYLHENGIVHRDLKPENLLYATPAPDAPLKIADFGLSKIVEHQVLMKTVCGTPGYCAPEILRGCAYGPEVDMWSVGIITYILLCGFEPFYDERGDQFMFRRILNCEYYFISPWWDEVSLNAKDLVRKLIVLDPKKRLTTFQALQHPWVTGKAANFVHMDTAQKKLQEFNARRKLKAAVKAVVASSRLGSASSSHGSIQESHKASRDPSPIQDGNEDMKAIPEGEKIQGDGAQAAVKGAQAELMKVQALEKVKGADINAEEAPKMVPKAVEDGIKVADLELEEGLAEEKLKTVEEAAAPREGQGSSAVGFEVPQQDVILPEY

[8] = biological target: Transcription factor HIVEP2 (Homo sapiens) (UniProt P31629); assay: Inhibition of MBP2 (unknown origin) at 10 uM after 60 mins by ADP-Glo luminescence assay
HepG2 [9] = assay: Antiproliferative activity against human HepG2 cells assessed as cell viability after 48 hrs by MTT assay; conditions: HepG2, 48 h
[10] = biological target: Serine/threonine-protein kinase D1 (Homo sapiens) (UniProt Q15139); assay: Inhibition of PKCmu (unknown origin) at 10 uM after 60 mins by ADP-Glo luminescence assay
MCF7 [11] = assay: Antimigratory activity against human MCF7 cells at IC50 after 48 hrs by wound-healing assay; assay type: functional, cell-based
MDA-MB-435S [12] = assay: Induction of apoptosis in human MDA-MB-435S cells assessed as viable cells at IC50 after 24 hrs by Annexin V-FITC/propidium iodide staining-based flow cytometric analysis (reference value: 98.8%); assay type: functional
[13] = biological target: Death-associated protein kinase 1 (Homo sapiens) (UniProt P53355); assay: Inhibition of DAPK1 (unknown origin) at 10 uM after 60 mins by ADP-Glo luminescence assay
Chain of Death-associated protein kinase 1 (Homo sapiens) (P53355 whole entry, looked up): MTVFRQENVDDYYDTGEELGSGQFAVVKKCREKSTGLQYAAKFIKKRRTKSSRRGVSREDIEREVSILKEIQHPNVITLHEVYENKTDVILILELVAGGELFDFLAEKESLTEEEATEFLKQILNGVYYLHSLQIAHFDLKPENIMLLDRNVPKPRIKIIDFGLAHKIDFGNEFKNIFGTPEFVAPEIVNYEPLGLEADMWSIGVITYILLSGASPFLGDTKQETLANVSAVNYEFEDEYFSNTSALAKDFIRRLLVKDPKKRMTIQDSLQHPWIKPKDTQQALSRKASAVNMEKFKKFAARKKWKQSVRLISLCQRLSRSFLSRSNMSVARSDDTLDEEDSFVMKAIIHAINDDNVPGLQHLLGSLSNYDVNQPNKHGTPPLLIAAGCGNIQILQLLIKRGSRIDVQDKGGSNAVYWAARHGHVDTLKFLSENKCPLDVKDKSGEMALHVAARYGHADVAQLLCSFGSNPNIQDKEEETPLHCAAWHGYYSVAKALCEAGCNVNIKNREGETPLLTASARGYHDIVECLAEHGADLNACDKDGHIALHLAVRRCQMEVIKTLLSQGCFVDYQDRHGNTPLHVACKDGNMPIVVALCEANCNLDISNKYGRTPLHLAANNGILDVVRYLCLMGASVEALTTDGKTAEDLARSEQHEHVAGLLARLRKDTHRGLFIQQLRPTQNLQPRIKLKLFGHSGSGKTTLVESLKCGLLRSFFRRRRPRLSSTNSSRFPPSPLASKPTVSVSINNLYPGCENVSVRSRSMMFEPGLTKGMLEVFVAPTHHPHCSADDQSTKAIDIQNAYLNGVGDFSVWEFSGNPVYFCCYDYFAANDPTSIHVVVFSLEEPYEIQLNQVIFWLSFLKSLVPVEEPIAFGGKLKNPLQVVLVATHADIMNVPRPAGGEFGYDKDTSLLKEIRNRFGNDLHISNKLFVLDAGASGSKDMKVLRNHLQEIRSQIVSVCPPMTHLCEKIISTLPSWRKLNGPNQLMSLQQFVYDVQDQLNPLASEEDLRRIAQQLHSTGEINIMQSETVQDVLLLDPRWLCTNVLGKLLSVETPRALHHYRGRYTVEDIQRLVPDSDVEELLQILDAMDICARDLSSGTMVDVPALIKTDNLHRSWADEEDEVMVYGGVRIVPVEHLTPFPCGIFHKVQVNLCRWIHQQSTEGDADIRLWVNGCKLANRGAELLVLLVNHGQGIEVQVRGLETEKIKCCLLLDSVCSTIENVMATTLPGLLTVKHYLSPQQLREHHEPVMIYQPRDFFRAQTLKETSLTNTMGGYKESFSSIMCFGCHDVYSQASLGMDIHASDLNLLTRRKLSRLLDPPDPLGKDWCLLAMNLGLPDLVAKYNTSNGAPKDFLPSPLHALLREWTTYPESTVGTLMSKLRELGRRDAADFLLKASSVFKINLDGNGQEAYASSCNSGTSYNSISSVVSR

MDA-MB-435S [14] = assay: Induction of apoptosis in human MDA-MB-435S cells assessed as necrotic cells at IC50 after 24 hrs by Annexin V-FITC/propidium iodide staining-based flow cytometric analysis (reference value: 0.64%); assay type: functional
HepG2 [15] = assay: Induction of apoptosis in human HepG2 cells assessed as early apoptotic cells at IC50 after 24 hrs by Annexin V-FITC/propidium iodide staining-based flow cytometric analysis (reference value: […]); assay type: functional
MDA-MB-435S [16] = assay: Induction of ROS generation in human MDA-MB-435S cells at IC50 after 5 to 6 hrs by DCFDA staining-based spectroflourimetric analysis; assay type: functional, cell-based
[17] = biological target: Serine/threonine-protein kinase 33 (Homo sapiens) (UniProt Q9BYT3); assay: Inhibition of STK33 (unknown origin) at 10 uM after 60 mins by ADP-Glo luminescence assay
Chain of Serine/threonine-protein kinase 33 (Homo sapiens) (Q9BYT3 whole entry, looked up): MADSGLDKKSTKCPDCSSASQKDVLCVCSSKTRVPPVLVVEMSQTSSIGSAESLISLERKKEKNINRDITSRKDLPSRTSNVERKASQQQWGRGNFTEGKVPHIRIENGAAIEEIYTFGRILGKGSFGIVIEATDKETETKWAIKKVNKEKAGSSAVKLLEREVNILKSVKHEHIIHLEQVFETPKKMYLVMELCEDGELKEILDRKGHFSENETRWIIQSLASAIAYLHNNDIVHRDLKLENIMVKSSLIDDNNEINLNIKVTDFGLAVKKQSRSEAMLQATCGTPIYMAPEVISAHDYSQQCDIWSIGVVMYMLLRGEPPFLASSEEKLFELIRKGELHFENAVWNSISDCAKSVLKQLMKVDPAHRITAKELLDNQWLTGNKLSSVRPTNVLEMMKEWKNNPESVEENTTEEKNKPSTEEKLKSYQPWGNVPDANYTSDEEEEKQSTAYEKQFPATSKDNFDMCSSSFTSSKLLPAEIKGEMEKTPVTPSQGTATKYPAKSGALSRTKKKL

HepG2 [18] = assay: Induction of apoptosis in human HepG2 cells assessed as viable cells at IC50 after 24 hrs by Annexin V-FITC/propidium iodide staining-based flow cytometric analysis (reference value: 97.6%); assay type: functional
HepG2 [19] = assay: Induction of ROS generation in human HepG2 cells at IC50 after 5 to 6 hrs by DCFDA staining-based spectroflourimetric analysis; assay type: functional, cell-based
[20] = biological target: 5'-AMP-activated protein kinase catalytic subunit alpha-1 (Homo sapiens) (UniProt Q13131); assay: Inhibition of AMPKA1 (unknown origin) at 10 uM after 60 mins by ADP-Glo luminescence assay
MDA-MB-435S [21] = assay: cells; conditions: Homo sapiens, 48 h
Description: Antiproliferative activity against human MDA-MB-435S cells assessed as cell viability after 48 hrs by MTT assay

MDA-MB-435S [22] = assay: Induction of apoptosis in human MDA-MB-435S cells assessed as late apoptotic cells at IC50 after 24 hrs by Annexin V-FITC/propidium iodide staining-based flow cytometric analysis (reference value: 0.18%); assay type: functional
[23] = biological target: Serine/threonine-protein kinase Chk1 (Homo sapiens) (UniProt O14757); assay: Inhibition of CHK1 (unknown origin) at 10 uM after 60 mins by ADP-Glo luminescence assay
[24] = biological target: Serine/threonine-protein kinase Chk2 (Homo sapiens) (UniProt O96017); assay: Inhibition of CHK2 (unknown origin) at 10 uM after 60 mins by ADP-Glo luminescence assay
Chain of Serine/threonine-protein kinase Chk2 (Homo sapiens) (O96017 whole entry): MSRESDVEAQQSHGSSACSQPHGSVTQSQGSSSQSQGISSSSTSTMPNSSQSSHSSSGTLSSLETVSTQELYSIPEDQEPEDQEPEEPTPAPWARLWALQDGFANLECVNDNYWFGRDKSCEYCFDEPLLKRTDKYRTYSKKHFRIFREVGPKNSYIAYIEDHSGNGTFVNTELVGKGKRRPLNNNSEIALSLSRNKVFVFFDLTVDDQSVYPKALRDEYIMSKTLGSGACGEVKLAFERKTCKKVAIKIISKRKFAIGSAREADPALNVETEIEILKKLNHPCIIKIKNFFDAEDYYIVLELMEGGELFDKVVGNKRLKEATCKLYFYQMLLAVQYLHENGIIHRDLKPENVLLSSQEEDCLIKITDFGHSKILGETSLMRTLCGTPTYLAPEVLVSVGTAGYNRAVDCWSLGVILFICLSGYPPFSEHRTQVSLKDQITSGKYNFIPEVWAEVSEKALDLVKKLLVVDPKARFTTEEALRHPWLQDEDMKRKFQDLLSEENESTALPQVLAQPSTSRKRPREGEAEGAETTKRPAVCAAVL

MCF7 [25] = assay: Induction of apoptosis in human MCF7 cells assessed as late apoptotic cells at IC50 after 24 hrs by Annexin V-FITC/propidium iodide staining-based flow cytometric analysis (reference value: 0.077%); assay type: functional
[26] = biological target: Calcium/calmodulin-dependent protein kinase type II subunit beta (Homo sapiens) (UniProt Q13554); assay: Inhibition of CAMK2 beta (unknown origin) at 10 uM after 60 mins by ADP-Glo luminescence assay
HepG2 [27] = assay: Induction of apoptosis in human HepG2 cells assessed as necrotic cells at IC50 after 24 hrs by Annexin V-FITC/propidium iodide staining-based flow cytometric analysis (reference value: […]); assay type: functional
HEK293 = assay: Antiproliferative activity against human HEK293 cells assessed as cell viability after 48 hrs by MTT assay; assay type: cell-based; conditions: HEK293, 48 h
[28] = biological target: MAP kinase-activated protein kinase 2 (Homo sapiens) (UniProt P49137); assay: Inhibition of MAPKAPK2 (unknown origin) at 10 uM after 60 mins by ADP-Glo luminescence assay
MCF7 [29] = assay: Induction of apoptosis in human MCF7 cells assessed as viable cells at IC50 after 24 hrs by Annexin V-FITC/propidium iodide staining-based flow cytometric analysis (reference value: 98.4%); assay type: functional
[30] = biological target: 5'-AMP-activated protein kinase subunit beta-1 (Homo sapiens) (UniProt Q9Y478); assay: Inhibition of AMPKB1 (unknown origin) at 10 uM after 60 mins by ADP-Glo luminescence assay
Chain of 5'-AMP-activated protein kinase subunit beta-1 (Homo sapiens) (Q9Y478 whole entry): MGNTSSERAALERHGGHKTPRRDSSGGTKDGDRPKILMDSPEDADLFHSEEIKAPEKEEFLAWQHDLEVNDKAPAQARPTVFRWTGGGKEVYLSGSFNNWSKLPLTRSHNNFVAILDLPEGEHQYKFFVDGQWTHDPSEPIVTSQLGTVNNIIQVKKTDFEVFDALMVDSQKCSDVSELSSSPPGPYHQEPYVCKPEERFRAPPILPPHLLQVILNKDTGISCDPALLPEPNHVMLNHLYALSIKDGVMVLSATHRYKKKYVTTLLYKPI

MDA-MB-435S [31] = assay: Induction of apoptosis in human MDA-MB-435S cells assessed as early apoptotic cells at IC50 after 24 hrs by Annexin V-FITC/propidium iodide staining-based flow cytometric analysis (reference value: 0.36%); assay type: functional

For `COc1ccc(Cn2cc(C(=O)N/N=C3/C(=O)Nc4c(C)cccc43)nn2)cc1`, the inhibition [1] was “inactive”, the inhibition [2] was “inactive” and the inhibition [3] was “inactive”. The Activity (MCF7 [4]) was “Active”, the Ka (Albumin) was 1.27 ×10⁴ /M and the IC50 (MCF7 [5]) was 6.22 µM. The Activity (HepG2 [6]) was 1.19%, the inhibition [7] was “inactive” and the inhibition [8] was “inactive”. For the same compound, the IC50 (HepG2 [9]) was 8.14 µM, the inhibition [10] was “inactive” and the Activity (MCF7 [11]) was “Active”. For the same compound, the Activity (MDA-MB-435S [12]) was 66.3%, the inhibition [13] was “inactive” and the Activity (MDA-MB-435S [14]) was 0.59%. The Activity (HepG2 [15]) was 37.3%, the Activity (MDA-MB-435S [16]) was “Active” and the inhibition [17] was “inactive”. For the same compound, the Activity (HepG2 [18]) was 59.4%, the Activity (HepG2 [19]) was “Active” and the inhibition [20] was “inactive”. For the same compound, the IC50 (MDA-MB-435S [21]) was 9.94 µM, the Activity (MDA-MB-435S [22]) was 2.24% and the inhibition [23] was “inactive”. For the same compound, the inhibition [24] was “inactive”, the Activity (MCF7 [25]) was 13.1% and the inhibition [26] was “inactive”. For the same compound, the Activity (HepG2 [27]) was 2.11%, the IC50 (HEK293) was 200 µM and the inhibition [28] was “inactive”. For the same compound, the Activity (MCF7 [29]) was 52.6%, the inhibition [30] was “inactive” and the Activity (MDA-MB-435S [31]) was 30.9%.
